According to patent US20070128217A1 (priority 2003, published 2007):

How the values were obtained:
[1] = system: control sera (pooled serum of ten healthy LUMC hospital workers; commercial negative donor pooled serum from the Dutch bloodbank); format: binding, human; parameters: Binding of Control serum LUMC to linear peptides / Binding of Control serum Blood-bank to linear peptides / Binding of Control serum LUMC to looped peptides / Binding of Control Serum Blood-Bank to Looped peptides / Binding of Control serum LUMC to linear peptides of the protein M of SARS-CoV Urbani / Binding of Control serum Blood-bank to linear peptides of the protein M of SARS-CoV Urbani / Binding of Control serum LUMC to looped peptides of the protein M of SARS-CoV Urbani / Binding of Control Serum Blood-Bank to Looped peptides of the protein M of SARS-CoV Urbani: unit not given here
[2] = system: rabbit serum obtained by immunizing a rabbit with the SARS-CoV strain Frankfurt 1; format: binding; parameters: Binding of a rabbit serum to linear peptides / Binding of a rabbit serum to looped peptides / Rabbit serum linear peptides / Rabbit serum looped peptides / Binding of a rabbit serum to linear peptides of protein N of SARS-CoV Urbani (Rabbit serum linear peptides) / Binding of a rabbit serum to looped/cyclic peptides of protein N of SARS-CoV Urbani (Rabbit serum looped peptides): unit not given here
[3] = system: antibodies in sera from SARS patients (sera 1a, 1b, 2, 6, 37, 62, London, SARS-yellow, SARS-green); format: binding, human; parameters: Binding of serum 6 to linear peptides of protein X1 of SARS-CoV Urbani / Binding of serum 37 to linear peptides of protein X1 of SARS-CoV Urbani / Binding of serum 6 to looped/cyclic peptide (PEPSCAN-ELISA) / Binding of serum 37 to looped/cyclic peptide (PEPSCAN-ELISA) / Binding of serum 37 to looped/cyclic peptides of protein X1 of SARS-CoV Urbani / Binding of serum 6 to linear peptides of protein X2 / Binding of serum 37 to linear peptides of protein X2 / Binding of serum 37 to looped/cyclic peptides of protein X2 of SARS-CoV Urbani / Binding of serum 6 to linear peptides of protein M of SARS-CoV Urbani / Binding of serum 37 to linear peptides of protein M of SARS-CoV Urbani / Binding of serum 6 to looped/cyclic peptides of protein M of SARS-CoV Urbani / Binding of serum 37 to looped/cyclic peptides of protein M of SARS-CoV Urbani / Binding of serum 6 to linear peptides of protein X3 of SARS-CoV Urbani / Binding of serum 37 to linear peptides of protein X3 of SARS-CoV Urbani / Binding of serum 37 to looped/cyclic peptides of protein X3 of SARS-CoV Urbani / Binding of serum 6 to linear peptides of protein X4 of SARS-CoV Urbani / Binding of serum 37 to linear peptides of protein X4 of SARS-CoV Urbani / Binding of serum 37 to looped/cyclic peptides of protein X4 of SARS-CoV Urbani / Binding of serum 6 to linear peptides of protein X5 of SARS-CoV Urbani / Binding of serum 37 to linear peptides of protein X5 of SARS-CoV Urbani / Binding of serum 37 to looped/cyclic peptides of protein X5 of SARS-CoV Urbani / Binding of serum 6 to linear peptides of protein N of SARS-CoV Urbani / Binding of serum 37 to linear peptides of protein N of SARS-CoV Urbani / Binding of serum 6 to linear peptide (PEPSCAN-ELISA) / Binding of serum 1a to looped/cyclic peptides of protein N of SARS-CoV Urbani / Binding of serum 1b to looped/cyclic peptides of protein N of SARS-CoV Urbani / Binding of serum 2 to looped/cyclic peptides of protein N of SARS-CoV Urbani / Binding of serum 6 to looped/cyclic peptides of protein N of SARS-CoV Urbani / Binding of serum 37 to looped/cyclic peptides of protein N of SARS-CoV Urbani / Binding of serum 62 to looped/cyclic peptides of protein N of SARS-CoV Urbani / Binding of serum London to looped/cyclic peptides of protein N of SARS-CoV Urbani / Binding of serum SARS-green to looped/cyclic peptides of protein N of SARS-CoV Urbani: unit not given here

## TCTSTHFAFACADGT
[1]
  Binding of Control Serum Blood-Bank to Looped peptides: 0.7
  Binding of Control serum Blood-bank to linear peptides: 0.8
  Binding of Control serum LUMC to linear peptides: 0.9
  Binding of Control serum LUMC to looped peptides: 0.8
[2]
  Rabbit serum linear peptides: 0.5
  Rabbit serum looped peptides: 0.7
[3]
  Binding of serum 1a to linear peptides of protein X4 of SARS-CoV Urbani: 0.8
  Binding of serum 1a to looped/cyclic peptides of protein X4 of SARS-CoV Urbani: 0.8
  Binding of serum 1b to linear peptides of protein X4 of SARS-CoV Urbani: 0.7
  Binding of serum 1b to looped/cyclic peptides of protein X4 of SARS-CoV Urbani: 0.6
  Binding of serum 2 to linear peptides of protein X4 of SARS-CoV Urbani: 0.5
  Binding of serum 2 to looped/cyclic peptides of protein X4 of SARS-CoV Urbani: 0.8
  Binding of serum 6 to linear peptides of protein X4 of SARS-CoV Urbani: 0.7
  Binding of serum 6 to looped/cyclic peptides of protein X4 of SARS-CoV Urbani: 0.6
  Binding of serum 37 to linear peptides of protein X4 of SARS-CoV Urbani: 0.7
  Binding of serum 37 to looped/cyclic peptides of protein X4 of SARS-CoV Urbani: 0.7
  Binding of serum 62 to linear peptides of protein X4 of SARS-CoV Urbani: 0.9
  Binding of serum 62 to looped/cyclic peptides of protein X4 of SARS-CoV Urbani: 0.8
  Binding of serum London to linear peptides of protein X4 of SARS-CoV Urbani: 0.8
  Binding of serum London to looped/cyclic peptides of protein X4 of SARS-CoV Urbani: 0.3
  Binding of serum SARS-green to linear peptides of protein X4 of SARS-CoV Urbani: 0.6
  Binding of serum SARS-green to looped/cyclic peptides of protein X4 of SARS-CoV Urbani: 0.5
  Binding of serum SARS-yellow to linear peptides of protein X4 of SARS-CoV Urbani: 0.6
  Binding of serum SARS-yellow to looped/cyclic peptides of protein X4 of SARS-CoV Urbani: 0.8

## HATATIPLQASLPFG
[1]
  Binding of Control Serum Blood-Bank to Looped peptides: 0.7
  Binding of Control serum Blood-bank to linear peptides: 0.8
  Binding of Control serum LUMC to linear peptides: 0.6
  Binding of Control serum LUMC to looped peptides: 0.7
[2]
  Binding of a rabbit serum to linear peptides: 0.1
  Binding of a rabbit serum to looped peptides: 0.5
[3]
  Binding of serum 1a to linear peptides of protein X1 of SARS-CoV Urbani: 0.9
  Binding of serum 1a to looped/cyclic peptide (PEPSCAN-ELISA): 0.8
  Binding of serum 1b to linear peptides of protein X1 of SARS-CoV Urbani: 0.8
  Binding of serum 1b to looped/cyclic peptide (PEPSCAN-ELISA): 0.6
  Binding of serum 2 to linear peptides of protein X1 of SARS-CoV Urbani: 0.6
  Binding of serum 2 to looped/cyclic peptide (PEPSCAN-ELISA): 0.5
  Binding of serum 6 to linear peptides of protein X1 of SARS-CoV Urbani: 0.6
  Binding of serum 6 to looped/cyclic peptide (PEPSCAN-ELISA): 0.5
  Binding of serum 37 to linear peptides of protein X1 of SARS-CoV Urbani: 0.8
  Binding of serum 37 to looped/cyclic peptide (PEPSCAN-ELISA): 0.6
  Binding of serum 62 to linear peptides of protein X1 of SARS-CoV Urbani: 0.7
  Binding of serum 62 to looped/cyclic peptide (PEPSCAN-ELISA): 0.6
  Binding of serum London to linear peptides of protein X1 of SARS-CoV Urbani: 0.3
  Binding of serum London to looped/cyclic peptide (PEPSCAN-ELISA): 0.2
  Binding of serum SARS-green to linear peptides of protein X1 of SARS-CoV Urbani: 0.2
  Binding of serum SARS-green to looped/cyclic peptide (PEPSCAN-ELISA): 0.4
  Binding of serum SARS-yellow to linear peptides of protein X1 of SARS-CoV Urbani: 0.4
  Binding of serum SARS-yellow to looped/cyclic peptide (PEPSCAN-ELISA): 0.4

## LIVAALVFLILCFTI
[1]
  Binding of Control Serum Blood-Bank to Looped peptides: 0.5
  Binding of Control serum Blood-bank to linear peptides: 0.6
  Binding of Control serum LUMC to linear peptides: 0.4
  Binding of Control serum LUMC to looped peptides: 0.5
[2]
  Rabbit serum linear peptides: 0.5
  Rabbit serum looped peptides: 0.4
[3]
  Binding of serum 1a to linear peptides of protein X4 of SARS-CoV Urbani: 0.7
  Binding of serum 1a to looped/cyclic peptides of protein X4 of SARS-CoV Urbani: 0.6
  Binding of serum 1b to linear peptides of protein X4 of SARS-CoV Urbani: 0.5
  Binding of serum 1b to looped/cyclic peptides of protein X4 of SARS-CoV Urbani: 0.3
  Binding of serum 2 to linear peptides of protein X4 of SARS-CoV Urbani: 0.5
  Binding of serum 2 to looped/cyclic peptides of protein X4 of SARS-CoV Urbani: 0.5
  Binding of serum 6 to linear peptides of protein X4 of SARS-CoV Urbani: 0.4
  Binding of serum 6 to looped/cyclic peptides of protein X4 of SARS-CoV Urbani: 0.3
  Binding of serum 37 to linear peptides of protein X4 of SARS-CoV Urbani: 0.6
  Binding of serum 37 to looped/cyclic peptides of protein X4 of SARS-CoV Urbani: 0.6
  Binding of serum 62 to linear peptides of protein X4 of SARS-CoV Urbani: 0.6
  Binding of serum 62 to looped/cyclic peptides of protein X4 of SARS-CoV Urbani: 0.6
  Binding of serum London to linear peptides of protein X4 of SARS-CoV Urbani: 0.6
  Binding of serum London to looped/cyclic peptides of protein X4 of SARS-CoV Urbani: 0.2
  Binding of serum SARS-green to linear peptides of protein X4 of SARS-CoV Urbani: 0.5
  Binding of serum SARS-green to looped/cyclic peptides of protein X4 of SARS-CoV Urbani: 0.4
  Binding of serum SARS-yellow to linear peptides of protein X4 of SARS-CoV Urbani: 0.4
  Binding of serum SARS-yellow to looped/cyclic peptides of protein X4 of SARS-CoV Urbani: 0.5
